# Results reported in patent US9458118B2, “Sodium channel modulators for the treatment of pain and diabetes” (CHROMOCELL CORPORATION, priority 2013, dated 2016).
# Tested on: rats
# Assay: Acetic acid writhing model in rats
# Assay type: in vivo, rat
# Settings: doses of 10 to 30 mg/kg, intraperitoneal route
# Method: The Acetic Acid Writhing Model is associated with visceral pain (abdominal pain, such as stomach pain, and pain caused by, for example, bile duct congestion and kidney stones). A writhing test assesses acute peritoneovisceral pain.
# After acclimation of 2-3 days, a test compound, positive control or vehicle control was administered by intraperitoneal injection (i.p.) or by oral gavage 15-30 minutes prior to administration of acetic acid. The time of administration of test compound was recorded. For mice: Method A: 0.6% Acetic acid solution in saline was injected i.p. in a volume of 10 ml/kg; Method B: 1.2% Acetic acid solution in saline was injected i.p. in a volume of 5 ml/kg. For rats: 4% acetic acid in saline was injected i.p in a volume of 2 ml/kg at T=0 minutes. Each animal was placed in a clear plastic cage. At T=5 minutes, the number of writhing movements was counted over a 45 minute period. Alternatively, the writhing movements were counted over a 5-minute period and repeated every 5 minutes, starting at T=5 minutes over a 45-minute period.
# For each compound tested, the individual score was obtained by calculating the accumulated writhing movements for the time period studied. […]
smiles,measurement,value
"O=C(O)CNC(=O)c1cc(-c2cc(Cl)ccc2Oc2cc(F)c(S(=O)(=O)Nc3ncns3)cc2Cl)ccn1 [Compound 2, 2-(4-(2-(4-(N-(1,2,4-thiadiazol-5-yl)sulfamoyl)-2-chloro-5-fluorophenoxy)-5-chlorophenyl)picolinamido)acetic acid]",reduction in pain (writhing) relative to vehicle control,48-58%
